According to paper PMC7356692, “Structural Basis of Specific Glucoimidazole and Mannoimidazole Binding by Os3BGlu7” (Biomolecules, 2020):

Target: T1, Os3BGlu7 (Oryza sativa, UniProt Q75I93)
T1 construct: gene BGLU7; recombinant from E. coli Origami (DE3); IMAC, fusion tag removed with enterokinase; mature enzyme; two molecules per asymmetric unit
Experiment: X-ray crystallography, […] Å
Assay type: binding
Settings: crystal soaked in 10 mM mannoimidazole preparation (GIm as contaminant or isomerization product); -1 subsite; pH 6.7

T1 sequence (Q75I93 29-504): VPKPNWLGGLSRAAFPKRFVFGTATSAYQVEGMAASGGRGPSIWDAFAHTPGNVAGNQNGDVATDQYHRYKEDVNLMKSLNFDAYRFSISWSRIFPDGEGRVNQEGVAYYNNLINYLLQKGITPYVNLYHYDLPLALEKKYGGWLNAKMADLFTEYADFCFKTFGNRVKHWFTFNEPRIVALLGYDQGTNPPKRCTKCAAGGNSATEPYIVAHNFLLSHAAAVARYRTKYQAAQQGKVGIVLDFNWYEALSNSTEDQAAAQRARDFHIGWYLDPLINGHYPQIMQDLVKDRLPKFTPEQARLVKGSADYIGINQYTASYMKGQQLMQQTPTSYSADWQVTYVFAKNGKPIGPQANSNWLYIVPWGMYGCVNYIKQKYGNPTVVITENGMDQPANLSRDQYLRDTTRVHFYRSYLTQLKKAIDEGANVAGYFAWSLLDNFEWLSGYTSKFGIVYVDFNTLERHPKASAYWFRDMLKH

## OC[C@@H]1[C@@H](O)[C@H](O)[C@@H](O)c2nccn21 [glucoimidazole]
  X-ray crystallography, 2.3 Å: electron densities of ligand in the active sites of both protein molecules in the asymmetric unit
